The test concerns patients suffering from coronary artery disease complicated with type 2 diabetes. Description: Administration of SGLT2 inhibitor (50 mg Ipragliflozin) for 3 months; changes in individual indicators before and after administration. To be noted: for 1,5-AG after administration of SGLT2 inhibitor: P <0.001. It counts as in vivo, human. As to the method:
Thirty patients suffering from coronary artery disease complicated with type 2 diabetes (28 male patients and 2 female patients; average age: 70.5±8.1 years old) who did outpatient visit and could not sufficiently control their blood glucose level only by administration with an oral hypoglycemic agent were used as subjects. Patients whose casual urinary sugar was positive before administration of the agent were excluded from the subjects. The aforementioned patients were administered with the SGLT2 inhibitor (50 mg Ipragliflozin; 30 cases) alone or in combination with other oral hypoglycemic agents for 3 months. In the additional administration groups, the antidiabetic agents used in combination with the SGLT2 inhibitor were 10 cases of sulfonylurea drugs, 19 cases of DPP-4 inhibitors, 9 cases of thiazolidine drugs, and 4 cases of metformin. The average number of the combined agents was 2.4. During the observation period, the combined antidiabetic agents were not changed.
Before administration of the SGLT2 inhibitor and 3 months after the first administration, 1,5-AG, HbA1c, casual urinary sugar (U-Sugar), LDL cholesterol (LDL-C), hematocrit (Ht), NT-proBNP, and eGFR (estimated glomerular filtration rate) were measured, and changes in individual indicators before and after the administration were examined. Moreover, regarding cases in which the 1,5-AG value before administration of the SGLT2 inhibitor was less than 13 μg/mL (19 male patient cases), changes in individual indicators before and after the administration were examined.
1,5-AG was measured by an enzymatic method (the aforementioned Lana 1,5AG Auto Liquid, manufactured by Nippon Kayaku Co., Ltd.); HbA1c was measured by an HPLC method (manufactured by Tosoh Co., Ltd.); casual urinary sugar was measured by a test paper method (manufactured by Eiken Chemical Co., Ltd.); and LDL cholesterol was measured by an enzymatic method (manufactured by SEKISUI MEDICAL CO., LTD.) and NT-pro BNP was measured by an ELC-EIA method (manufactured by Roche Diagnostics K. K.).
In Table 5 and Table 6, the results are shown with mean±SD, and for statistical analyses, a paired t-test was applied, and p<0.05 was defined to be statistically significant.

As for `OC[C@H]1O[C@@H](c2ccc(F)c(Cc3cc4ccccc4s3)c2)[C@H](O)[C@@H](O)[C@@H]1O` [Ipragliflozin], the “1,5-AG after administration of SGLT2 inhibitor” value reads like this: (19 male patients with 1,5-AG less than 13 μg/mL before administration, 50 mg, 3 months, mean ± SD, before 8.6 ± 2.9) 1.7 ± 0.8 µg/mL; (30 patients, 50 mg, 3 months after first administration, mean ± SD, before administration 12.8 ± 6.7) 2.5 ± 2.0. For the same compound, the “HbA1c after administration of SGLT2 inhibitor” value runs as follows: (19 male patients with 1,5-AG less than 13 μg/mL before administration, 3 months, before 7.2 ± 0.8, P = 0.13) 6.8 ± 0.6; (30 patients, 50 mg, 3 months, mean ± SD, before 7.0 ± 0.8, P = 0.40) 7.2 ± 1.2.

The values are drawn from patent US12264356B2, “Method for determining sensitivity to SGLT2 inhibitor and sensitivity marker for SGLT2 inhibitor” (NIHON UNIVERSITY, priority 2019, dated 2025).
